Laboratory results from PMC11124341, “4-Hydroxybenzoic Acid-Based Hydrazide–Hydrazones as Potent Growth Inhibition Agents of Laccase-Producing Phytopathogenic Fungi That Are Useful in the Protection of Oilseed Crops” (Molecules, 2024).

Tests used:
[1] = test system: rapeseed (Brassica napus L. var. napus) seeds; experiment: Phytotest 1: phytotoxicity, seed germination and root growth; format: in vivo; settings: 50 µg/mL; versus water–ethanol 0.5% (v/v) control; <90% inhibition, 90–110% no effect, >110% stimulation
Text: (§1) In the experiments with plants, two aspects were taken under consideration: (1) phytotoxicity, which determined the toxicity of the hydrazide–hydrazones on seed germination and root growth, and (2) study on the behavior of seeds in the presence of the tested hydrazide–hydrazones and pathogens producing laccase (B. cinerea and S. sclerotiorum). The non-coated seeds of Linum usitatissimum, Helianthus annuus, and Brassica napus var. napus were provided by the Institute of Soil Science and Plant Cultivation, National Research Institute in Pulawy, Department of Weed Science and Tillage Systems, and Institute of Technology and Life Sciences–National Research Institute Falenty (Poland). Both phytotests were performed based on direct-contact microbiotests following the protocol recommended by the manufacturer (PhytotestkitTM, MicroBio Tests, Mariakerke, Belgium) with the authors’ modifications.
(§2) The main phytotest equipment (Tigret, Warsaw, Poland) and general methods are described as follows. Test plates (21 × 15.5 × 0.8 cm) provide optimal moisture and enable observation of seed germination and data reading at the end of the test. A single plate is made of polyvinylchloride and composed of both a transparent bottom and a covering part that are stuck together by a set of press buttons. […] Such prepared wet support was covered with a black filter paper that soaked the solution and was applied for further testing.
(§3) In the assay of phytotoxicity (1), the seeds of three dicota plants were used, namely ten seeds of flax or rapeseed and six seeds of sunflower. The seeds were transferred directly on the filter surface by placing them along the line at approximately 1 cm from the ridge at equal distances. Then, the seeds on the filter surface were covered with a covering part and placed in a holder.
(§4) All test plates were put vertically in a special incubator to allow free germination and growth of roots at 25 °C through 5 days in the dark. The test was performed in triplicate for each test plant. The results were expressed as the germination index values (GI, Equation (2)) concerning the plant growth controls in water–ethanol solution for (1). […] The GI was calculated from the formula and categorized as an inhibition for GI values < 90%, as stimulation > 110%, and between 90 and 110% as non-toxic/no effect as proposed in the literature. (2) GI,%=Gs×Ls/Gc×Lc×100% where Gs is seed germination (%), Ls is root elongation (mm) for the test plate, and Gc and Lc are corresponding values for the control plates. Gc was calculated as the proportion of germinated seeds in the test in relation to the number of germinated seeds in the control. The control was the representative number of seeds that germinated on a medium with 0.5% (v/v) of ethanol.

Balb/3T3 cells = experiment: Antiproliferative assay in vitro (SRB); format: cell-based, mouse; settings: Mus musculus, BALB/3T3; 72 h exposure, SRB method; read-out: Average IC50 ± SD, Balb/3T3 line
Procedure: Antiproliferative tests were performed on a normal human breast cell line, MCF-10A, and a mouse embryonic fibroblast: Balb/3T3. Both cell lines were obtained from the American Type Culture Collection (Rockville, MD, USA). The cell lines were maintained in the Institute of Immunology and Experimental Therapy, Wroclaw, Poland. MCF-10A cells were cultured in the F-12 nutrient mixture (Gibco, Scotland, UK), supplemented with 5% horse serum (Gibco, Scotland, UK), […] (Vibrio cholerae Pacini), 10 μg/mL of hydrocortisone and 20 ng/mL of human epidermal growth factor (all from Sigma-Aldrich, Chemie GmbH, Steinheim, Germany). Balb/3T3 cells were cultured in Dulbecco medium (Gibco, Darmstadt, Germany) supplemented with 10% fetal bovine serum (Thermo Fisher Scientific, Waltham, MA, USA) and 2 mM l-glutamine (Sigma-Aldrich, St. Louis, MO, USA). All culture media contained antibiotics: 100 U/mL penicillin (Sigma-Aldrich, St. Louis, MO, USA) and 100 µg/mL streptomycin (Polfa-Tarchomin, Warsaw, Poland). Both cell lines were cultured during the entire experiment in a humid atmosphere at 37 °C and 5% CO2. Amistar 250 SC (fungicide) with active compound azoxystrobin was provided by the Institute of Soil Science and Plant Cultivation, National Research Institute in Pulawy, Department of Weed Science and Tillage Systems in Wroclaw, Poland […].
Twenty-four hours prior to the applications of the tested compounds, MCF-10A and Balb/3T3 cells were plated in 96-well plates at a density of 10^4 cells per well and cultured at 37 °C in a humid atmosphere saturated with 5% CO2 for 24 h. Stock solutions of the compounds were prepared ex tempore for each test by dissolving in DMSO. The cells were also exposed to the reference drugs: cis-platin (Accord, London, UK) (10–0.01 µg/mL) and DMSO (Sigma-Aldrich) (at the concentrations corresponding to those in the tested agent dilutions). The solutions were then diluted in culture medium RPMI 1640 + Opti-MEM (1:1) (both from Gibco, Scotland, UK), supplemented with 2 mM l-glutamine, 5% fetal bovine serum (all from Sigma-Aldrich Chemie GmbH, Steinheim, Germany). An assay was performed after 72 h of exposure to the tested compounds 13, 17, 18, 19, 25, 27, 30, 4-hba, 4-hbah, and 3,4,5-hba (0.5, 5.0, 50, and to 500 µM) and azoxystrobin fungicide (0.05, 0.5, 5.0 and 50 µM). The antiproliferative effect in vitro was determined by the SRB method (sulforhodamine B colorimetric assay). The optical densities of the samples were measured on the Synergy H4 photometer (BioTek Instruments, Winooski, VT, USA) at 540 nm. The results were calculated as 50% inhibitory concentration (IC50), namely the dose of the tested compound inhibiting proliferation of the tested cells by 50% as compared to the untreated control cells, in the Prolab-3 system based on Cheburator 0.4 software using the two-point method. Each test was repeated 3–5 times.
Cytotoxicity was performed on two normal cell lines: MCF -10A and Balb/3T3, using as controls cis-platin in the concentrations of 0.03 32, 0.3 32, 3.32 and 33.2 µM and azoxystrobin fungicide in the […]
were tested in the concentrations of 0.5, 5.0, 50, and 500 µM. The relation of compound concentration […]
Further, a comparison of the influence of each tested concentration in the group of tested compounds on cell lines was illustrated in Figure S130 a (MCF-10A) and b (Balb/T3T).
Table S4. Cytotoxicity results for compounds 13, 17, 18, 19, 25, 27, and 30 investigated on normal mammalian lines: MCF -10A and B alb/3T3 using Azoxystrobin (fungicide) and cis-platin as reference compounds.
Cytotoxicity profile presented as proliferation inhibition, % (y -axis) in the function of compound concentration, […]
Structure MCF-10A Balb/3T3
Proliferation inhibition [%] […]

[2] = test system: flax (Linum usitatissimum L.) seeds; experiment: Phytotest 1: phytotoxicity, seed germination and root growth; format: in vivo; settings: 50 µg/mL; versus water–ethanol 0.5% (v/v) control; <90% inhibition, 90–110% no effect, >110% stimulation
Text: as §1, §2, §3, §4

Row | Compound | Germination index (GI), rapeseed, test 1 [1] | IC50 (Balb/3T3 cells) [µM] | Germination index (GI), flax, test 1 [2] | melting point
1 | COc1cc(/C=N/NC(=O)c2ccc(O)cc2)ccc1O [compound 17] | 81% | 217 ± 61.2 | – | –
2 | CC(C)(C)c1cccc(/C=N/NC(=O)c2ccc(O)cc2)c1O [compound 18] | 67% | 11.4 ± 2.54 | stimulating | –
3 | O=C(N/N=C/c1cccc(-c2ccccc2)c1O)c1ccc(O)cc1 [compound 19] | stimulating | 3.97 ± 0.15 | – | –
4 | Cc1cc(/C=N/NC(=O)c2ccc(O)cc2)c(O)c(CO)c1 [compound 25] | stimulated | 27.2 ± 4.3 | stimulated | –
5 | CC(C)(C)c1cc(/C=N/NC(=O)c2ccc(O)cc2)c(O)c(C(C)(C)C)c1 [compound 27] | 83% | 11.7 ± 0.69 | – | –
6 | O=C(N/N=C/c1cc(O)ccc1O)c1ccc(O)cc1 [compound 13] | – | 132 ± 9.22 | – | 304 °C (dec.)
7 | Cc1cc(/C=N/NC(=O)c2ccc(O)cc2)c(O)c(C(C)(C)C)c1 [compound 30] | – | 23.1 ± 3.87 | – | –
